Assay results: the supplement of paper PMC10307832

Key:
Assay in all cases: relative viability (nuclei count vs DMSO), 5 days (fraction); higher = more cells survive
CAP-232 + Luminespib = compound: C[C@H]([C@@H](C(=O)N)NC(=O)[C@@H]1CSSC[C@@H](C(=O)N[C@H](C(=O)N[C@@H](C(=O)N[C@H](C(=O)N1)CCCCN)CC2=CNC3=CC=CC=C32)CC4=CC=C(C=C4)O)NC(=O)[C@@H](CC5=CC=CC=C5)N)O [CAP-232] + CCNC(=O)c1noc(-c2cc(C(C)C)c(O)cc2O)c1-c1ccc(CN2CCOCC2)cc1 [Luminespib] (partner 0.01 µM)
Method in brief: (§1)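 The day after seeding in 1536-well plates, lung cancer cell lines were treated by pin tool with a single drug, or with a fixed anchor-drug dose together with five library-drug doses (not always all listed) in √10 steps. After 5 days, a combined fix-and-stain solution (final 0.05% Triton X-100, 1% formaldehyde, 1 ug/ml Hoechst) was added. Nuclei counted on 4× images gave relative viability as treated counts over vehicle counts, reported as the median of duplicate plates.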

CAP-232 + Foretinib = compound: C[C@H]([C@@H](C(=O)N)NC(=O)[C@@H]1CSSC[C@@H](C(=O)N[C@H](C(=O)N[C@@H](C(=O)N[C@H](C(=O)N1)CCCCN)CC2=CNC3=CC=CC=C32)CC4=CC=C(C=C4)O)NC(=O)[C@@H](CC5=CC=CC=C5)N)O [CAP-232] + COc1cc2c(Oc3ccc(NC(=O)C4(C(=O)Nc5ccc(F)cc5)CC4)cc3F)ccnc2cc1OCCCN1CCOCC1 [Foretinib] (partner 0.25 µM)
Method in brief: as §1

CAP-232 + OSI-027 = compound: C[C@H]([C@@H](C(=O)N)NC(=O)[C@@H]1CSSC[C@@H](C(=O)N[C@H](C(=O)N[C@@H](C(=O)N[C@H](C(=O)N1)CCCCN)CC2=CNC3=CC=CC=C32)CC4=CC=C(C=C4)O)NC(=O)[C@@H](CC5=CC=CC=C5)N)O [CAP-232] + COc1cccc2cc(-c3nc([C@H]4CC[C@H](C(=O)O)CC4)n4ncnc(N)c34)[nH]c12 [OSI-027] (partner 0.5 µM)
Method in brief: as §1

CAP-232 + Alpelisib = compound: C[C@H]([C@@H](C(=O)N)NC(=O)[C@@H]1CSSC[C@@H](C(=O)N[C@H](C(=O)N[C@@H](C(=O)N[C@H](C(=O)N1)CCCCN)CC2=CNC3=CC=CC=C32)CC4=CC=C(C=C4)O)NC(=O)[C@@H](CC5=CC=CC=C5)N)O [CAP-232] + Cc1nc(NC(=O)N2CCC[C@H]2C(N)=O)sc1-c1ccnc(C(C)(C)C(F)(F)F)c1 [Alpelisib] (partner 2 µM)
Method in brief: as §1

CAP-232 + Decitabine = compound: C[C@H]([C@@H](C(=O)N)NC(=O)[C@@H]1CSSC[C@@H](C(=O)N[C@H](C(=O)N[C@@H](C(=O)N[C@H](C(=O)N1)CCCCN)CC2=CNC3=CC=CC=C32)CC4=CC=C(C=C4)O)NC(=O)[C@@H](CC5=CC=CC=C5)N)O [CAP-232] + Nc1ncn([C@H]2C[C@H](O)[C@@H](CO)O2)c(=O)n1 [Decitabine] (partner 2 µM)
Method in brief: as §1

Row | Cell Line | relative viability (CAP-232 + Luminespib; first compound 0.4 µM) | relative viability (CAP-232 + Luminespib; first compound 1.265 µM) | relative viability (CAP-232 + Luminespib; first compound 4 µM) | relative viability (CAP-232 + Luminespib; first compound 12.65 µM) | relative viability (CAP-232 + Foretinib; first compound 0.4 µM) | relative viability (CAP-232 + Foretinib; first compound 1.265 µM) | relative viability (CAP-232 + Foretinib; first compound 4 µM) | relative viability (CAP-232 + Foretinib; first compound 12.65 µM) | relative viability (CAP-232 + OSI-027; first compound 0.4 µM) | relative viability (CAP-232 + OSI-027; first compound 1.265 µM) | relative viability (CAP-232 + OSI-027; first compound 4 µM) | relative viability (CAP-232 + OSI-027; first compound 12.65 µM) | relative viability (CAP-232 + Alpelisib; first compound 0.4 µM) | relative viability (CAP-232 + Alpelisib; first compound 1.265 µM) | relative viability (CAP-232 + Alpelisib; first compound 4 µM) | relative viability (CAP-232 + Alpelisib; first compound 12.65 µM) | relative viability (CAP-232 + Decitabine; first compound 0.4 µM) | relative viability (CAP-232 + Decitabine; first compound 1.265 µM) | relative viability (CAP-232 + Decitabine; first compound 4 µM) | relative viability (CAP-232 + Decitabine; first compound 12.65 µM)
1 | LCLC-97TM1 | 0.799 | 0.819 | 0.804 | 0.799 | 0.879 | 0.9 | 1.01 | 0.925 | 0.437 | 0.523 | 0.601 | 0.486 | 0.252 | 0.228 | 0.285 | 0.244 | 0.195 | 0.211 | 0.192 | 0.237
2 | NCI-H2170 | 0.777 | 0.866 | 0.674 | 0.826 | 1 | 1.04 | 1.02 | 1.05 | 0.658 | 0.737 | 0.777 | 0.669 | 0.81 | 0.865 | 0.831 | 0.76 | 0.496 | 0.492 | 0.492 | 0.486
3 | NCI-H1993 | 0.735 | 0.882 | 0.99 | 0.831 | 0.804 | 0.775 | 0.829 | 0.757 | 0.604 | 0.539 | 0.544 | 0.492 | 0.605 | 0.674 | 0.719 | 0.633 | 0.569 | 0.676 | 0.608 | 0.559
4 | NCI-H460 | 0.0294 | 0.0314 | 0.0247 | 0.0208 | 1.02 | 1.1 | 1.22 | 0.622 | 0.767 | 0.739 | 0.825 | 0.275 | 0.512 | 0.541 | 0.595 | 0.211 | 0.496 | 0.475 | 0.541 | 0.17
5 | NCI-H1975 | 0.256 | 0.195 | 0.195 | 0.185 | 0.931 | 0.915 | 1.06 | 0.474 | 0.856 | 0.646 | 0.91 | 0.487 | 0.734 | 0.579 | 0.704 | 0.434 | 0.399 | 0.39 | 0.406 | 0.207
6 | SK-LU-1 | 0.198 | 0.211 | 0.183 | 0.207 | 0.759 | 0.937 | 0.913 | 0.652 | 0.329 | 0.342 | 0.308 | 0.332 | 1 | 1.11 | 1.07 | 0.96 | 0.628 | 0.622 | 0.768 | 0.469
7 | NCI-H322M | 0.686 | 0.832 | 0.809 | 0.565 | 1.05 | 0.962 | 0.952 | 0.985 | 0.569 | 0.528 | 0.52 | 0.437 | 0.778 | 0.753 | 0.709 | 0.755 | 0.706 | 0.654 | 0.701 | 0.704
8 | NCI-H1651 | 1.12 | 0.95 | 0.867 | 0.506 | 0.709 | 0.913 | 0.843 | 0.485 | 0.721 | 0.703 | 0.89 | 0.522 | 1.01 | 0.841 | 1.08 | 0.728 | 0.681 | 0.579 | 0.707 | 0.683
9 | HARA | 0.918 | 0.884 | 0.973 | 0.804 | 0.983 | 0.975 | 0.805 | 0.824 | 0.436 | 0.554 | 0.613 | 0.44 | 0.791 | 0.847 | 0.876 | 0.58 | 0.526 | 0.555 | 0.523 | 0.527
10 | H3255 | 0.805 | 0.825 | 1.05 | 1.01 | 0.849 | 0.799 | 0.866 | 0.854 | 0.567 | 0.538 | 0.63 | 0.811 | 0.759 | 0.741 | 0.633 | 0.503 | 0.744 |  | 0.608 | 0.676
11 | NCI-H441 | 0.388 | 0.329 | 0.382 | 0.382 | 0.895 | 1.03 | 0.7 | 1.07 | 0.527 | 0.683 | 0.602 | 0.686 | 0.757 | 0.912 | 0.788 | 0.843 | 0.26 | 0.242 | 0.286 | 0.234
12 | ABC-1 | 0.554 | 0.587 | 0.686 | 0.377 | 0.772 | 0.876 | 1.35 | 0.677 | 0.455 | 0.421 | 0.481 | 0.271 | 1.05 | 1.15 | 1.24 | 0.504 | 1.05 |  | 0.984 | 0.887
13 | NCI-H1437 | 1.17 | 1.13 | 1.24 | 0.812 | 1.26 | 1.27 | 1.34 | 1.2 | 0.94 | 0.793 | 0.917 | 0.698 | 0.901 | 1.04 | 1.05 | 0.768 | 0.559 | 0.535 | 0.624 | 0.523
14 | HOP-62 | 0.957 | 0.917 | 1.13 | 0.908 | 1.04 | 1.07 | 1.01 | 1.03 | 1.03 | 0.745 | 0.756 | 0.781 | 0.967 |  | 1.17 | 1.29 | 0.255 | 0.209 | 0.256 | 0.229
